Like-named read-outs stand apart in the source and are kept apart here.
Molecular target: T1, isomerase (Mus musculus, UniProt Q91ZQ5)
T1 construct: The recovery of 11-cis-retinal after bleaching can be used to estimate the activity of isomerase in vivo; from tissue; host or cells: eyes of living CD-1 and Balb/c male mice
T1 sequence (Q91ZQ5 1-533): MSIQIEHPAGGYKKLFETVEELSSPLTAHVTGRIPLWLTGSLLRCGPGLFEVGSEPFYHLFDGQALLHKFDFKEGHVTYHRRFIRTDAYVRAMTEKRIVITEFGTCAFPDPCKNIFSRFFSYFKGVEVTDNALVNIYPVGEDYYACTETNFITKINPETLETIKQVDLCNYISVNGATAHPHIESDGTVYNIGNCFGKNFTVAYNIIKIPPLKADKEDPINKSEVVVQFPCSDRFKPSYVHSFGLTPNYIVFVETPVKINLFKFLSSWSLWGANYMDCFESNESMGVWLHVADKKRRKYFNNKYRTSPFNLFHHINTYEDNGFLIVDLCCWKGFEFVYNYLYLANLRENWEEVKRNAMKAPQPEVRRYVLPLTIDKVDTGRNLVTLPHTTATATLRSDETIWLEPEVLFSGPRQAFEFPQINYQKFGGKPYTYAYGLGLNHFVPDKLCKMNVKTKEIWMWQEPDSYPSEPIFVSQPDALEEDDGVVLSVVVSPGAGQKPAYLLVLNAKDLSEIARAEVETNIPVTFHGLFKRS
Assay: In vivo murine isomerase assay (recovery of 11-cis-retinal after photobleaching)
Design: species or system mice
Conditions: for inhibition in vivo at 1 mg/kg / inhibition in vivo at 5 mg/kg: read-out: % Inibition; for isomerase inhibitory activity / inhibition at 1 mg/kg / inhibition at 5 mg/kg: CD1 male mice
Procedure: The capability of alkynyl phenyl-linked amine derivatives to inhibit isomerase is determined by an in vivo murine isomerase assay. Brief exposure of the eye to intense light (“photobleaching” of the visual pigment or simply “bleaching”) is known to photo-isomerize almost all 11-cis-retinal in the retina. The recovery of 11-cis-retinal after bleaching can be used to estimate the activity of isomerase in vivo. Delayed recovery, as represented by lower 11-cis-retinal oxime levels, indicates inhibition of isomerization reaction. Procedures were performed essentially as described by Golczak et al., Proc. Natl. Acad. Sci. […] See also Deigner et al., Science, 244: 968-71 (1989); […] Parish, et al., Proc. Natl. Acad. Sci. USA, 14609-13 (1998); […] Six-week old dark-adapted CD-1 (albino) male mice were orally gavaged with compound (0.03-3 mg/kg) dissolved in 100 μl corn oil containing 10% ethanol (five animals per group). […] After 2-24 hours in the dark, the mice were exposed to photobleaching of 5,000 lux of white light for 10 minutes. The mice were allowed to recover 2 hours in the dark. The animals were then sacrificed by carbon dioxide inhalation. Retinoids were extracted from the eye and the regeneration of 11-cis-retinal was assessed at various time intervals. All steps were performed in darkness with minimal redlight illumination (low light darkroom lights and […] flashlights for spot illumination as needed) (see, e.g., Maeda et al., J. Neurochem 85:944-956, 2003; Van Hooser et al., J Biol Chem 277:19173-82, 2002). After the mice were sacrificed, the eyes were immediately removed and placed in liquid nitrogen for storage. The eyes were placed in 500 μL of bis-tris propane buffer (10 mM, pH 7.3) and 20 μL of 0.8M hydroxile amine (pH-7.3). The eyes were cut up into small pieces with small iris scissors and then thoroughly homogenized at 30000 rpm with a mechanical homogenizer (Polytron PT 1300 D) in the tube until no visible tissue remained. 500 μL of methanol and 500 μL of heptane were added to each tube. The tubes were attached to a vortexer so that the contents were mixed thoroughly for 15 minutes in room temperature. […] The samples were analyzed on an Agilent 1100 HPLC system with normal phase column: SILICA (Beckman Coutlier, dp 5 μm, […]). The running method has a flow rate of 1.5 ml/min; solvent components are 15% solvent 1 (1% isopropanol in ethyl acetate), and 85% solvent 2 (100% hexanes). Loading volume for each sample is 100 μl; detection wavelength is 360 nm. The area under the curve for 11-cis retinal oxime was calculated by Agilent Chemstation software and was recorded manually. Data processing was performed using Prizm software. Positive control mice (no compound administered) were sacrificed fully dark-adapted and the eye retinoids analyzed. Light (bleached) control mice (no compound administered) were sacrificed and retinoids isolated and analyzed immediately after light treatment. […] Animals that received Compound 19 HCl were orally dosed with 0.01 and 1 mg/kg of compound in sterile water as solution, and photobleached 4 hours after dosing. Recovery and retinoid analysis were performed as described above. Dark control mice were vehicle-only treated, sacrificed fully dark adapted without light treatment, and analyzed. […] A time course study was performed to determine the isomerase inhibitory activity of Compounds 2, 18 and 19. Male Balb/c mice (4/group) received 3 mg Compound 2-HCl, Compound 18-HCl or Compound 19-HCl (in water) per kg bodyweight orally, by gavage. The animals were then “photo-bleached” (5000 Lux white light for 10 minutes) at 2, 4, 8, 16 and 24 hours after dosing, and returned to darkness to allow recovery of the 11-cis-retinal content of the eyes. Mice were sacrificed 2 hours after bleaching, eyes were enucleated, and retinoid content was analyzed by HPLC. A single dose study of the compound of Example 36 (Compound 36) was performed, at 1 mg/kg and 5 mg/kg oral dosing, 2, 4, 6, and 24 hours post bleaching. […]

`NCCCc1cccc(C#Cc2ccccn2)c1` [Example 61, 3-(3-(Pyridin-2-ylethynyl)phenyl)propan-1-amine] gave an inhibition in vivo at 1 mg/kg (mouse, 4 h) of 0% and an inhibition in vivo at 1 mg/kg (mouse, 24 h) of 0%.

Molecule `CC(C)C(O)(C#Cc1cccc(CCCN)c1)C(C)C` [Example 32, 1-(3-(3-Aminopropyl)phenyl)-3-isopropyl-4-methylpent-1-yn-3-ol] has an inhibition in vivo at 1 mg/kg (mouse, 4 h) of 75% and an inhibition in vivo at 1 mg/kg (mouse, 24 h) of 14%.

With `NCCC(O)c1cccc(C#CC2CCCCC2)c1` (stereo not drawn) [Example 52, 3-Amino-1-(3-(Cyclohexylethynyl)Phenyl)Propan-1-ol] the inhibition in vivo at 1 mg/kg (mouse, 4 h) was 72% and the inhibition in vivo at 1 mg/kg (mouse, 24 h) was 2%.

`CC(C)(O)C#Cc1cccc(CCCN)c1` [Example 7, 4-(3-(3-Aminopropyl)phenyl)-2-methylbut-3-yn-2-ol] was tested, and the inhibition in vivo at 5 mg/kg (mouse, 4 h) was 49% and the inhibition in vivo at 5 mg/kg (mouse, 24 h) was 0%.

`CCCC(O)(C#Cc1cccc([C@@H](O)CCN)c1)CCC` [Compound 101, (S)-4-((3-(3-Amino-1-Hydroxypropyl)Phenyl)Ethynyl)Heptan-4-ol] was tested, and the ED50 (mouse, po, read-out: ED50 (dose of compound that gives 50% inhibition of 11-cis retinal (oxime) recovery), estimated, male Balb/c mice, HCl salts dosed orally in mg/kg, photobleached 4 hours after dosing) was 0.38 mg/kg and the “inhibition of isomerase activity in vivo (figure legend)” value (oral dose response, photobleached 4 hours after dosing, Balb/c mice) was “concentration-dependent inhibition”.

Work on `NCCOc1cccc(C#CC2(O)CCCC2)c1` [Example 31, 1-((3-(2-Aminoethoxy)phenyl)ethynyl)cyclopentanol] yielded an inhibition in vivo at 1 mg/kg (mouse, 4 h) of 18% and an inhibition in vivo at 1 mg/kg (mouse, 24 h) of 0%.

`NCCOc1cccc(C#Cc2cccnc2)c1` [Example 62, 2-(3-(Pyridin-3-ylethynyl)phenoxy)ethanamine] was tested, and the inhibition in vivo at 1 mg/kg (mouse, 4 h) was 0% and the inhibition in vivo at 1 mg/kg (mouse, 24 h) was 0%.

Work on `NCCOc1cccc(C#CC2CCCC2)c1` [Example 79, 2-(3-(Cyclopentylethynyl)phenoxy)-ethanamine] yielded an inhibition in vivo at 1 mg/kg (mouse, 4 h) of 7% and an inhibition in vivo at 1 mg/kg (mouse, 24 h) of 1%.

With `CC(=O)NCCCc1cccc(C#CC2(O)CCCCC2)c1` [Example 60, N-(3-(3-((1-Hydroxycyclohexyl)Ethynyl)Phenyl)Propyl)Acetamide] the inhibition in vivo at 1 mg/kg (mouse, 4 h) was 10% and the inhibition in vivo at 1 mg/kg (mouse, 24 h) was 9%.

For `COc1ccccc1C#Cc1cccc(C(O)CCN)c1` (stereo not drawn) [Example 54, 3-Amino-1-(3-((2-Methoxyphenyl)Ethynyl)Phenyl)Propan-1-ol], the inhibition in vivo at 1 mg/kg (mouse, 4 h) was 67% and the inhibition in vivo at 1 mg/kg (mouse, 24 h) was 58%.

For `COc1ccccc1C#Cc1cccc(CCCN)c1` [Example 36, 3-(3-((2-Methoxyphenyl)Ethynyl)Phenyl)Propan-1-Amine], the “isomerase inhibitory activity” value (1 mg/kg single oral dose) was “inactive”, the “isomerase inhibitory activity” value (5 mg/kg single oral dose, at 24 h) was “full recovery” and the inhibition at 1 mg/kg (mouse, po, 1 mg/kg single oral dose, 2 h) was 6%. The inhibition at 1 mg/kg (mouse, po, 1 mg/kg single oral dose, 6 h) was 5%, the inhibition at 1 mg/kg (mouse, po, 1 mg/kg single oral dose, 24 h) was 0% and the inhibition at 5 mg/kg (mouse, po, 5 mg/kg single oral dose, 2 h) was 46%. The inhibition at 5 mg/kg (mouse, po, 5 mg/kg single oral dose, 6 h) was 45% and the inhibition at 5 mg/kg (mouse, po, 5 mg/kg single oral dose, 24 h) was 0%.

Molecule `NCCC(O)c1cccc(C#CCCO)c1` (stereo not drawn) [Example 51, 4-(3-(3-Amino-1-hydroxypropyl)phenyl)but-3-yn-1-ol] has an inhibition in vivo at 1 mg/kg (mouse, 4 h) of 0% and an inhibition in vivo at 1 mg/kg (mouse, 24 h) of 0%.
